Assays:
[1] = tested on: hydantoin racemase enzyme solution of transformant; experiment: Substrate specificity of hydantoin racemase of transformant; format: biochemical, Escherichia coli HB101 (pBHR001); details: activity for L-5-(2-methylthioethyl)hydantoin taken at 100, method of Example 2
Description: (§1) Substrate specificity of purified hydantoin racemase was examined. First, 0.1 ml of purified hydantoin racemase obtained in Example 1 was added to each 0.9 ml of 50 mM Tris-HCl buffers (pH 7.5) containing 50 mM L-5-(2-methylthioethyl)hydantoin, 50 mM D-5-(2-methylthioethyl)hydantoin, 13 mM D-5-(1-mercapto-1-methyl)ethylhydantoin, 8 mM L-5-isobutylhydantoin, 50 mM L-5-(1-methylpropyl)hydantoin, and 4 mM L-5-benzylhydantoin, respectively. The mixtures were allowed to react at 30° C., and the reaction was terminated by adding 0.1 ml of 1N HCl. Except for the reaction using the substrate D-5-(1-mercapto-1-methyl)ethylhydantoin, the reaction was analyzed by diluting the supernatant of a centrifuged reaction mixture two times with ion exchange water, and by quantifying the D-5-substituted hydantoin compound generated in the reaction mixture, using HPLC. HPLC analysis was performed under the conditions given above. For the reaction using the substrate D-5-(1-mercapto-1-methyl)ethylhydantoin, the reaction mixture was analyzed by quantifying a sample that had been obtained by extracting the reaction mixture with 1 ml of ethyl acetate. Analysis was performed by performing HPLC under the following conditions. Column: CHIRALPAK AD-H (Daicel), eluent: hexane/isopropanol=9/1, flow rate: 1 ml/min., column temperature: 25° C., detection: 210 nm.
Using the hydantoin racemase enzyme solution of transformant obtained in Example 7, substrate specificity was examined according to the method of Example 2. The result is shown in Table 4 as relative activities, taking the activity for L-5-(2-methylthioethyl)hydantoin at 100.

[2] = tested on: purified hydantoin racemase; experiment: Substrate specificity of purified hydantoin racemase; format: biochemical, Bacillus sp. KNK519HR; details: purified enzyme; activity for L-5-(2-methylthioethyl)hydantoin taken at 100; 30° C., Tris-HCl pH 7.5; substrate 4-50 mM
Description: as §1

[3] = target: T1, hydantoin racemase of Pseudomonas sp. (Pseudomonas sp., UniProt Q00924); details: Pseudomonas sp. enzyme; proportion of D-form at reaction time 10 minutes; L-5-(2-methylthioethyl)hydantoin = 100; cited from earlier work
T1 sequence (Q00924 1-249): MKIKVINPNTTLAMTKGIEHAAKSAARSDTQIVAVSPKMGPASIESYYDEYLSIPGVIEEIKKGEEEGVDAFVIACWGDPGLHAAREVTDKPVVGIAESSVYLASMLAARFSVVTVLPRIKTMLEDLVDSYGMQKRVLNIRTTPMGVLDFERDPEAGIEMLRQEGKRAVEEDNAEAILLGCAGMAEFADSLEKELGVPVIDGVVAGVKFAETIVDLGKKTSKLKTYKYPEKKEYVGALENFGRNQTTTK

[4] = tested on: hydantoin racemase produced by Bacillus sp. KNK519HR; experiment: Substrate specificity with crude enzyme solution of Bacillus sp. KNK519HR (HPLC); format: biochemical; details: activity for L-5-isobutylhydantoin taken at 100, 30° C., pH 7.5, HPLC of D-hydantoin
Description: Substrate specificity of hydantoin racemase produced by Bacillus sp. KNK519HR was examined using a crude enzyme solution of Bacillus sp. KNK519HR that was produced according to the procedure described in Example 1. First, 0.1 ml of crude enzyme solution was added to each 0.9 ml of 50 mM Tris-HCl buffers (pH 7.5) containing 4 mM L-5-benzylhydantoin, 50 mM L-5-(2-methylthioethyl)hydantoin, and 8 mM L-5-isobutylhydantoin, respectively. The mixtures were allowed to react at 30° C., and the reaction was terminated by adding 0.1 ml of 1N HCl. The supernatant of a centrifuged reaction mixture was diluted two times with ion exchange water, and the D-5-substituted hydantoin compound generated in the reaction mixture was quantified by HPLC. HPLC analysis was performed under the following conditions. Column: Chirobiotic T (4.6 mm×250 mm, ASTEC Inc., eluent: 0.01% (v/v) Triethylamine acetate (pH 6.8)/methanol=9/1, flow rate: 0.7 ml/min., column temperature: 35° C., detection: 210 nm. Further, 0.1 ml of crude enzyme solution of Bacillus sp. KNK519HR was added to 0.9 ml of 50 mM Tris-HCl buffer (pH 7.5) containing 50 mM 5-methylhydantoin, together with recombinant Escherichia coli having D-form selective hydantoinase activity for 1 ml of culture solution (described later), and recombinant Escherichia coli having D-form selective N-carbamylamino acid amidohydrolase activity for 1 ml of culture solution. The mixture was allowed to react at 30° C., and the reaction was terminated by adding 0.1 ml of 1N HCl. After neutralization with 1N NaOH, the reaction mixture was centrifuged and the D-alanine generated in the supernatant was quantified by an enzyme method using D-amino acid oxydase and peroxydase.

[5] = tested on: hydantoin racemase produced by Bacillus sp. KNK519HR; experiment: Substrate specificity with crude enzyme solution coupled with D-hydantoinase and D-N-carbamylamino acid amidohydrolase, D-alanine quantified by enzyme method; format: biochemical; details: L-5-isobutylhydantoin = 100, 50 mM substrate
Description: Substrate specificity of hydantoin racemase produced by Bacillus sp. KNK519HR was examined using a crude enzyme solution of Bacillus sp. KNK519HR that was produced according to the procedure described in Example 1. First, 0.1 ml of crude enzyme solution was added to each 0.9 ml of 50 mM Tris-HCl buffers (pH 7.5) containing 4 mM L-5-benzylhydantoin, 50 mM L-5-(2-methylthioethyl)hydantoin, and 8 mM L-5-isobutylhydantoin, respectively. The mixtures were allowed to react at 30° C., and the reaction was terminated by adding 0.1 ml of 1N HCl. The supernatant of a centrifuged reaction mixture was diluted two times with ion exchange water, and the D-5-substituted hydantoin compound generated in the reaction mixture was quantified by HPLC. HPLC analysis was performed under the following conditions. […] After neutralization with 1N NaOH, the reaction mixture was centrifuged and the D-alanine generated in the supernatant was quantified by an enzyme method using D-amino acid oxydase and peroxydase.
Quantification of D-alanine by the enzyme method was performed as follows. […] The mixture was allowed to react for 90 minutes, and an absorbance at 555 nm was measured to quantity the D-alanine generated in the reaction mixture. […]

[6] = tested on: purified hydantoin racemase; experiment: Measurement of Km value (Lineweaver-Burk plot); format: biochemical, Bacillus sp. KNK519HR; details: FIG. 2
Description: A Km value for L-5-(2-methylthioethyl)hydantoin was determined from the Lineweaver-Burk plot.

[7] = Effective temperature range, optimum temperature, effective pH range and optimum pH of the enzyme; format: biochemical, Bacillus sp. KNK519HR; details: FIG. 3, activity at 40° C. taken at 100%
Description: Assessment was made as to effective temperature range and optimum temperature. FIG. 3 represents relative activities at different temperatures, taking the activity at 40° C. at 100%. The optimum temperature of the enzyme was 40° C., and the enzyme desirably exerted its action at all temperatures in the evaluated temperature range of 25° C. to 65° C.
Assessment was made as to effective pH range and optimum pH. […] The enzyme exerted its action in a pH range of 6 to 10. The optimum pH range was 8 to 9.

[8] = Hydantoin racemase activity of purified enzyme, HPLC quantification of D-5-(2-methylthioethyl)hydantoin generated; format: biochemical, Bacillus sp. KNK519HR; details: 30° C., 30 minutes, 50 mM Tris-HCl buffer (pH 7.5), 50 mM L-5-(2-methylthioethyl)hydantoin; 1 unit = 1 μmol D-form per minute
Description: In an embodiment of the present invention, the hydantoin racemase activity of the polypeptide can be measured by, for example, quantification of D-5-(2-methylthioethyl)hydantoin generated at 30° C. in 30 minutes in 50 mM Tris (tris(hydroxymethyl)aminomethane)-HCl buffer (pH 7.5) containing 50 mM L-5-(2-methylthioethyl)hydantoin, using high-performance liquid chromatography (HPLC) or the like.
The activity of the purified hydantoin racemase was determined by HPLC, by quantifying the amount of increase of D-5-(2-methylthioethyl)hydantoin generated at 30° C. in 30 minutes in a 50 mM Tris-HCl buffer (pH 7.5) containing 50 mM L-5-(2-methylthioethyl)hydantoin. HPLC analysis was performed under the following conditions. Column: Chirobiotic T (4.6 mm×250 mm, ASTEC Inc.), eluent: 0.01% (v/v) triethylamine acetate (pH 6.8)/methanol=9/1, flow rate: 0.7 ml/min., column temperature: 35° C., detection: 210 nm. Here, 1 unit was defined as the amount of enzyme that generated 1 μmol D-5-(2-methylthioethyl)hydantoin in one minute. Quantification of protein was performed according to the Lowry method, using BSA as a standard.

[9] = Temperature stability and pH stability of the enzyme (remaining activity); format: physicochemical, Bacillus sp. KNK519HR; details: FIG. 5
Description: Temperature stability of enzyme was examined as the remaining activity after 30 minutes of processing at different temperatures.
pH stability was examined. FIG. 6 represents remaining activity of enzyme after processing the enzyme at 30° C. for 16 hours at different pH, taking the activity of untreated enzyme at 100%. The enzyme was relatively stable in a pH range of 4.5 to 8.0.

[10] = Substrate inhibition of hydantoin racemase (crude enzyme solution); format: biochemical, Bacillus sp. KNK519HR; details: L-5-(2-methylthioethyl)hydantoin as substrate between 50 mM and 80 mM; initial rate, 30° C., FIG. 7
Description: Substrate inhibition of the hydantoin racemase produced by Bacillus sp. KNK519HR was examined using the crude enzyme solution prepared in Example 1. In a reaction mixture of 0.1-ml crude enzyme solution and each 0.9-ml of 50 mM Tris-HCl buffers (pH 7.5) respectively containing 5, 10, 50, and 80 mM L-5-(2-methylthioethyl)hydantoin, respectively, the reaction was performed at 30° C. for 10, 20, 30, and 40 minutes. After the reaction, hydantoin racemase activity was abolished by adding 0.1 ml of 1N HCl. The supernatant of the centrifuged reaction mixture was diluted two times with ion exchange water, and the D-5-(2-methylthioethyl)hydantoin generated in the reaction mixture was quantified by HPLC. HPLC analysis was performed under the same conditions used in Example 3. An initial reaction rate was determined at each initial substrate concentration. FIG. 7 represents a relationship between relative activity and initial substrate concentration.

| Molecule | Relative Activity [1] | Relative Activity [2] | Relative Activity [4] | further results |
| --- | --- | --- | --- | --- |
| CCC(C)[C@@H]1NC(=O)NC1=O (stereo partly drawn) [L-5-(1-methylpropyl)hydantoin] | 2 | 2 | – | Relative Activity [3]: 132 |
| CSCC[C@H]1NC(=O)NC1=O [D-5-(2-methylthioethyl)hydantoin] | 52 | 49 | – | – |
| CC(C)C[C@@H]1NC(=O)NC1=O [L-5-isobutylhydantoin] | 174 | 173 | 100 | – |
| C[C@@H]1NC(=O)NC1=O [L-5-methylhydantoin] | – | – | – | Relative Activity [5]: 20 |
| CSCC[C@@H]1NC(=O)NC1=O [L-5-(2-methylthioethyl)hydantoin] | 100 | 100 | 61 | Km [6]: 304 µM; Relative Activity [3]: 100 |
| CC(C)(S)C1NC(=O)NC1=O [D-5-(1-mercapto-1-methyl)ethylhydantoin] | 9 | 25 | – | – |
| O=C1NC(=O)[C@H](Cc2ccccc2)N1 [L-5-benzylhydantoin] | 35 | 52 | 35 | – |
| purified hydantoin racemase: hydantoin racemase from Bacillus sp. KNK519HR, polypeptide with the amino acid sequence of SEQ ID NO: 1 (protein, listed as Bacillus sp.) MKIKVINPNTTLAMTKGIEHAAKSAARSDTQIVAVSPKMGPASIESYYDEYLSIPGVIEEIKKGEEEGVDAFVIACWGDPGLHAAREVTDKPVVGIAESSVYLASMLAARFSVVTVLPRIKTMLEDLVDSYGMQKRVVNIRTTPMGVLDFERDPEAGIEMLRQEGKRAVEEDNAEAILLGCAGMAEFADSLEKELGVPVIDGVVAGVKFAEAIVDLGKKTSKLKTYKYPEKKEYVGALENFGLNQTTTK | – | – | – | optimum temperature [7]: 40 °C; specific activity [8]: 24.2 unit/mg protein; remaining activity (temperature stability) ([9]; after 30 minutes of processing at 30° C.): 80%; remaining activity (temperature stability) ([9]; after 30 minutes of processing at 70° C.): almost all activity was lost; substrate inhibition [10]: had substrate inhibition |

— patent US7709235B2, “5-Substituted hydantoin racemase, DNA encoding the same, recombinant DNA, transformed cell, and process for production of optically active N-carbamylamino acid or optically active amino acid” (priority 2005, dated 2010)
